Reference: patent US9302999B2, “Substituted triazoles as herbicides” (E. I. DU PONT DE NEMOURS AND COMPANY, priority 2012, dated 2016)
Like-named read-outs stand apart in the source and are kept apart here.

Assays:
Format in all cases: in vivo
soybean (Glycine max) = assay: Test C pre-/postemergence: soybean
Summary of the method: (§1)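 Preemergence on seeds in loam/sand, postemergence on 2–18 cm (1–4-leaf) plants in peat-based medium; compounds in non-phytotoxic solvent with surfactant. After 13–15 days in greenhouse, visual rating versus controls, 0 (no effect) to 100 (complete control).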

[1] = system: foxtail, giant (giant foxtail, Setaria faberii); assay: Test A pre-/postemergence: foxtail, giant; details: Setaria faberi, 240 h; for pest or weed control at 125 g/ha: 125 g ai/ha; for pest or weed control at 500 g/ha: 500 g ai/ha
Summary of the method: (§2)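 Seeds were sown in loam/sand blend and sprayed preemergence (directed soil spray) and, simultaneously, postemergence at 2–10 cm, one- to two-leaf stage, using compounds in non-phytotoxic solvent with surfactant. After ~10 days in greenhouse, injury was rated visually versus untreated controls, 0 (no effect) to 100 (complete control).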

[2] = system: galium (catchweed bedstraw, Galium aparine); assay: Test C pre-/postemergence: galium
Summary of the method: as §1

wild oat (Avena fatua) = assay: Test C pre-/postemergence: wild oat
Summary of the method: as §1

[3] = system: chickweed (common chickweed, Stellaria media); assay: Test C postemergence: chickweed
Summary of the method: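 Pot-grown plants in peat/vermiculite medium sprayed postemergence at 2–18 cm height (1- to 4-leaf stage). Kept in greenhouse 13 to 15 days, then visually rated against untreated controls on a 0–100 scale (0 = no effect, 100 = complete control).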

[4] = system: johnsongrass (Sorghum halepense); assay: Test C pre-/postemergence: johnsongrass
Summary of the method: as §1

kochia (Kochia scoparia) = assay: Test C pre-/postemergence: kochia
Summary of the method: as §1

[5] = system: pigweed (Amaranthus retroflexus); assay: Test C pre-/postemergence: pigweed
Summary of the method: as §1

[6] = system: velvetleaf (Abutilon theophrasti); assay: Test A pre-/postemergence: velvetleaf; details: Abutilon theophrasti, 240 h; for pest or weed control at 125 g/ha: 125 g ai/ha; for pest or weed control at 500 g/ha: 500 g ai/ha
Summary of the method: as §2

[7] = system: crabgrass, large (large crabgrass, Digitaria sanguinalis); assay: Test A pre-/postemergence: crabgrass, large; details: Digitaria sanguinalis, 240 h; for pest or weed control at 125 g/ha: 125 g ai/ha; for pest or weed control at 500 g/ha: 500 g ai/ha
Summary of the method: as §2

corn (Zea mays) = assay: Test C pre-/postemergence: corn
Summary of the method: as §1

[8] = system: lambsquarters (Chenopodium album); assay: Test C pre-/postemergence: lambsquarters
Summary of the method: as §1

[9] = Postemergence, 31 g ai/ha, scale 0 to 100 (0 no effect, 100 complete control)
[10] = Postemergence, 62 g ai/ha, scale 0 to 100 (0 no effect, 100 complete control)
[11] = Postemergence, 125 g ai/ha, scale 0 to 100, 0 no effect, 100 complete control
[12] = Postemergence, 250 g ai/ha, scale 0 to 100
[13] = Preemergence, 31 g ai/ha, scale of 0 to 100, 0 is no effect, 100 is complete control
[14] = Preemergence, 62 g ai/ha, scale of 0 to 100, 0 is no effect, 100 is complete control
[15] = Preemergence, 125 g ai/ha, scale 0 to 100, 0 no effect, 100 complete control
[16] = Preemergence, 250 g ai/ha, scale 0 to 100, 0 no effect, 100 complete control

## Cc1nn(-c2ccc(F)cc2)nc1Oc1ccnc(C(F)(F)F)c1 [Compound 129, 4-[[2-(4-fluorophenyl)-5-methyl-2H-1,2,3-triazol-4-yl]oxy]-2-(trifluoromethyl)pyridine]
Soybean (Glycine max); [9]
  Plant response rating, Soybean: 20
Soybean (Glycine max); [10]
  Plant response rating, Soybean: 40
Soybean (Glycine max); [11]
  Plant response rating, Soybean: 70
Soybean (Glycine max); [12]
  Plant response rating, Soybean: 75
Soybean (Glycine max); [13]
  Plant response rating, Soybean: 0
Soybean (Glycine max); [14]
  Plant response rating, Soybean: 0
Soybean (Glycine max); [15]
  Plant response rating, Soybean: 10
Soybean (Glycine max); [16]
  Plant response rating, Soybean: 40
[1]; post-emergence, Postemergence, 0 to 100 scale, 0 is no effect, 100 is complete control, read-out: Foxtail, Giant plant response rating
  pest or weed control at 125 g/ha: 90%
[1]; post-emergence, Postemergence, visual rating on 0 to 100 scale (0 no effect, 100 complete control), approximately ten days, read-out: Foxtail, Giant plant response rating
  pest or weed control at 500 g/ha: 90%
[1]; pre-emergence, Preemergence, 0 to 100 scale where 0 is no effect and 100 is complete control, read-out: Plant response rating, Foxtail, Giant
  pest or weed control at 125 g/ha: 100%
[1]; pre-emergence, Preemergence, 0 to 100 scale (0 no effect, 100 complete control), read-out: Plant response rating, Foxtail, Giant
  pest or weed control at 500 g/ha: 100%
[2]; [9]
  Plant response rating, Galium: 60
[2]; [10]
  Plant response rating, Galium: 85
[2]; [11]
  Plant response rating, Galium: 90
[2]; [12]
  Plant response rating, Galium: 90
[2]; [13]
  Plant response rating, Galium: 85
[2]; [14]
  Plant response rating, Galium: 100
[2]; [15]
  Plant response rating, Galium: 100
[2]; [16]
  Plant response rating, Galium: 100
Wild oat (Avena fatua); [9]
  Plant response rating, Oat, Wild: 20
Wild oat (Avena fatua); [10]
  Plant response rating, Oat, Wild: 35
Wild oat (Avena fatua); [11]
  Plant response rating, Oat, Wild: 50
Wild oat (Avena fatua); [12]
  Plant response rating, Oat, Wild: 80
Wild oat (Avena fatua); [13]
  Plant response rating, Oat, Wild: 40
Wild oat (Avena fatua); [14]
  Plant response rating, Oat, Wild: 85
Wild oat (Avena fatua); [15]
  Plant response rating, Oat, Wild: 95
Wild oat (Avena fatua); [16]
  Plant response rating, Oat, Wild: 95
[3]; 31 g ai/ha, scale 0 to 100 (0 no effect, 100 complete control)
  Plant response rating, Chickweed: 15
[3]; 62 g ai/ha, scale 0 to 100 (0 no effect, 100 complete control)
  Plant response rating, Chickweed: 45
[3]; 125 g ai/ha, scale 0 to 100, 0 no effect, 100 complete control
  Plant response rating, Chickweed: 80
[3]; 250 g ai/ha, scale 0 to 100
  Plant response rating, Chickweed: 98
[4]; [9]
  Plant response rating, Johnsongrass: 5
[4]; [10]
  Plant response rating, Johnsongrass: 15
[4]; [11]
  Plant response rating, Johnsongrass: 15
[4]; [12]
  Plant response rating, Johnsongrass: 70
[4]; [13]
  Plant response rating, Johnsongrass: 25
[4]; [14]
  Plant response rating, Johnsongrass: 75
[4]; [15]
  Plant response rating, Johnsongrass: 85
[4]; [16]
  Plant response rating, Johnsongrass: 95
Kochia (Kochia scoparia); [9]
  Plant response rating, Kochia: 95
Kochia (Kochia scoparia); [10]
  Plant response rating, Kochia: 95
Kochia (Kochia scoparia); [11]
  Plant response rating, Kochia: 98
Kochia (Kochia scoparia); [12]
  Plant response rating, Kochia: 98
Kochia (Kochia scoparia); [13]
  Plant response rating, Kochia: 5
Kochia (Kochia scoparia); [14]
  Plant response rating, Kochia: 90
Kochia (Kochia scoparia); [15]
  Plant response rating, Kochia: 90
Kochia (Kochia scoparia); [16]
  Plant response rating, Kochia: 95
[5]; [9]
  Plant response rating, Pigweed: 85
[5]; [10]
  Plant response rating, Pigweed: 98
[5]; [11]
  Plant response rating, Pigweed: 98
[5]; [12]
  Plant response rating, Pigweed: 100
[5]; [13]
  Plant response rating, Pigweed: 100
[5]; [14]
  Plant response rating, Pigweed: 100
[5]; [15]
  Plant response rating, Pigweed: 100
[5]; [16]
  Plant response rating, Pigweed: 100
[6]; post-emergence, Postemergence, 0 to 100 scale, 0 is no effect, 100 is complete control, read-out: Velvetleaf plant response rating
  pest or weed control at 125 g/ha: 70%
[6]; post-emergence, Postemergence, visual rating on 0 to 100 scale (0 no effect, 100 complete control), approximately ten days, read-out: Velvetleaf plant response rating
  pest or weed control at 500 g/ha: 100%
[6]; pre-emergence, Preemergence, 0 to 100 scale where 0 is no effect and 100 is complete control, read-out: Plant response rating, Velvetleaf
  pest or weed control at 125 g/ha: 60%
[6]; pre-emergence, Preemergence, 0 to 100 scale (0 no effect, 100 complete control), read-out: Plant response rating, Velvetleaf
  pest or weed control at 500 g/ha: 70%
[7]; post-emergence, Postemergence, 0 to 100 scale, 0 is no effect, 100 is complete control, read-out: Crabgrass, Large plant response rating
  pest or weed control at 125 g/ha: 90%
[7]; post-emergence, Postemergence, visual rating on 0 to 100 scale (0 no effect, 100 complete control), approximately ten days, read-out: Crabgrass, Large plant response rating
  pest or weed control at 500 g/ha: 90%
[7]; pre-emergence, Preemergence, 0 to 100 scale where 0 is no effect and 100 is complete control, read-out: Plant response rating, Crabgrass, Large
  pest or weed control at 125 g/ha: 100%
[7]; pre-emergence, Preemergence, 0 to 100 scale (0 no effect, 100 complete control), read-out: Plant response rating, Crabgrass, Large
  pest or weed control at 500 g/ha: 100%
Corn (Zea mays); [9]
  Plant response rating, Corn: 10
Corn (Zea mays); [10]
  Plant response rating, Corn: 15
Corn (Zea mays); [11]
  Plant response rating, Corn: 40
Corn (Zea mays); [12]
  Plant response rating, Corn: 65
Corn (Zea mays); [13]
  Plant response rating, Corn: 0
Corn (Zea mays); Preemergence, 62 g ai/ha, scale 0 to 100, 0 no effect, 100 complete control
  Plant response rating, Corn: 10
Corn (Zea mays); [15]
  Plant response rating, Corn: 45
Corn (Zea mays); [16]
  Plant response rating, Corn: 65
[8]; [9]
  Plant response rating, Lambsquarters: 98
[8]; [10]
  Plant response rating, Lambsquarters: 98
[8]; [11]
  Plant response rating, Lambsquarters: 98
[8]; [12]
  Plant response rating, Lambsquarters: 100
[8]; [13]
  Plant response rating, Lambsquarters: 95
[8]; [14]
  Plant response rating, Lambsquarters: 95
[8]; [15]
  Plant response rating, Lambsquarters: 98
[8]; [16]
  Plant response rating, Lambsquarters: 100
